Key:
[1] = test system: Femur was isolated from 10- to 11-day chick embryo; conditions: 100 µM
Method: Inhibitory effect of various compounds on bone resorption was tested according to the method described in "Advanced Tissue Cultures For In Vitro Assay And Production" (pages 111-114, edited by Isao Yamane & Hiroyoshi Endo, Published by SOFT SCIENCE, Inc. Tokyo).
Femur was isolated from 10- to 11-day chick embryo. After cleaned from adherent soft tissues, the preparation was precultivated in 1 ml of BGJb-HW2 culture medium containing benzofuro[3,2-c]quinoline derivatives of the present invention at 37° C for 24 hours using the roller-tube method. Tested compounds were dissolved in dimethylsulfoxide at a concentration of 0.1 M and the solution was diluted with the culture medium to make a final concentration of 10-^4 M of those compounds. In the case of control group, the same volume of dimethylsulfoxide was added.
On the next day, the precultivated femur was further cultivated for 2 hours at 37° C in 1 ml of fresh culture medium containing 1 µCi/ml of ^45CaCl2 to label the bone mineral with ^45Ca. Then, the cultivated bone was rinsed with a phosphate-buffered saline warmed at 37' C to remove ^45Ca adhered to the bone. ^45Ca-Labelled bone was again cultivated using the roller-tube method (10 revolutions/hr), and the radioactivity of ^45Ca in an aliquot of the culture medium was determined by liquid scintillation counter at a point of 12, 24, 48 and 72 hours, respectively. The culture medium was freshed at each determination of the radioactivity. After completion of the cultivation, the bone was immersed in 1 ml of 1 N HCI for 24 hours to elute all calcium in the bone, and the remaining radioactivity in the bone was determined.
From the obtained data, the rate of remaining radioactivity of the bone to the initial radioactivity of the bone was measured at each observation. Then the eluting rate of bone mineral by osteoclasts was obtained by linear-regression of decay curve for the rate of remaining radioactivity in the bone after 24 to 72 hours of the cultivation, and turnover rate of calcium in the bone mineral accumulated in the cultivated bone was estimated as biological half-life (T1/2).
The potency of the inhibition of presented compounds was calculated by the following equation using T1/2.

[2] = test system: Femur was isolated from 9-day chick embryo; assay: Stimulatory effect on ossification (femur organ culture, calcium content); type: cell-based; conditions: 10-^5 M; cultivated for 6 days; eluted calcium versus paired control femur; mean value of 6 observations
Method: Stimulatory effect of various compounds on ossification was tested according to the method described in "Advanced Tissue Cultures For In Vitro Assay And Production" (pages 111-114, edited by Isao Yamane & Hiroyoshi Endo, Published by SOFT SCIENCE, Inc. Tokyo).
Femur was isolated from 9-day chick embryo. After cleaned from adherent soft tissues, one femur of a paired femur was used for a test of compound of the present invention, and the other femur was used as control group. One preparation was placed directly on the inner surface of a glass roller-tube, and 2 ml of BGJb-HW2 culture medium was added to each tube. Each preparation was cultivated at 37° C by the roller-tube method (10 revolutions/hr) for 6 days. During the cultivation, femur length was measured, and the culture medium was freshed every other day. Tested compounds were dissolved in dimethylsulfoxide at a concentration of 0.01 M and the solution was diluted by the culture medium to make a final concentraiton of 10-^5 M of those compounds. In the case of control group, the same volume of dimethylsulfoxide was added.
After completion of the cultivation, the bone was immersed in 1 N HCI for 24 hours to elute all calcium in the bone, and the eluted calcium was determined by chelating method using orthocresolphthalein.
The potency of the stimulatory effect on ossification of presented compounds was calculated by the following equation. [formula]
The results are shown in the following table as the mean value of 6 observations.

[3] = test system: femur of rats loaded low calcium diets; assay: Effect on calcium and phosphorus contents in femur of rats loaded low calcium diets; type: in vivo, male Wistar rats; conditions: 300 mg/kg orally once a day for 2 weeks, mean±standard error of the mean of 10 observations
Method: Twenty male Wistar rats of 3 weeks age were divided into 2 groups. All animals were raised with low calcium diets. Test compound, 3,9-dihydroxy-5H-benzofuro [3,2-c]quinolin-6-one (compound 2) suspended in 0.5% sodium carboxymethyl cellulose solution (CMC) was orally administered to 1 group at a dose of 300 mg/kg once a day for 2 weeks. Another group recieved the same volume of CMC. After completion of the experiment, calcium and phosphorus contents in the femur were determined.
The results were shown in the following table as mean±standard error of the mean of 10 observations.

SMILES | Inhibitory potency on bone resorption [1] | further results
CC(Oc1ccc2c(c1)[nH]c(=O)c1c3ccccc3oc21)C(=O)O (stereo not drawn) [Compound 7, 3-(1-Carboxyethoxy)-5H-benzofuro[3,2-c]quinolin-6-one] | 1.10 | –
CCOC(=O)C(C)Oc1ccc2c(c1)[nH]c(=O)c1c3ccc(OC(C)C(=O)OCC)cc3oc21 (stereo not drawn) [Compound 12, 3,9-Bis(1-ethoxycarbonylethoxy)-5H-benzofuro[3,2-c]quinolin-6-one] | 1.16 | –
O=c1[nH]c2cc(OCCCO)ccc2c2oc3cc(O)ccc3c12 [Compound 11, 9-Hydroxy-3-(3-hydroxypropoxy)-5H-benzofuro[3,2-c]quinolin-6-one] | 2.89 | Stimulatory potency on ossification [2]: 1.14
CC(C)Oc1ccc2c(c1)[nH]c(=O)c1c3ccc(OC(C)C)cc3oc21 [Compound 8, 3,9-Diisopropoxy-5H-benzofuro[3,2-c]quinolin-6-one] | 1.24 | –
O=c1[nH]c2cc(OCCCO)ccc2c2oc3ccccc3c12 [Compound 5, 3-(3-Hydroxypropoxy)-5H-benzofuro[3,2-c]quinolin-6-one] | 1.26 | –
COc1ccc2c(c1)[nH]c(=O)c1c3ccc(OC)cc3oc21 [Compound 13, 3,9-Dimethoxy-5H-benzofuro[3,2-c]quinolin-6-one] | 1.04 | –
O=c1[nH]c2cc(OCCCO)ccc2c2oc3cc(OCCCO)ccc3c12 [Compound 10, 3,9-Bis(3-hydroxypropoxy)-5H-benzofuro[3,2-c]quinolin-6-one] | 1.40 | –
O=c1[nH]c2cc(O)ccc2c2oc3ccccc3c12 [Compound 1, 3-Hydroxy-5H-benzofuro[3,2-c]quinolin-6-one] | 1.24 | –
O=c1[nH]c2cc(O)ccc2c2oc3ccc(O)cc3c12 [Compound 3, 3,8-Dihydroxy-5H-benzofuro[3,2-c]quinolin-6-one] | 2.52 | –
O=c1[nH]c2cc(O)ccc2c2oc3cc(O)ccc3c12 [Compound 2, 3,9-Dihydroxy-5H-benzofuro[3,2-c]quinolin-6-one] | 1.97 | Amount of calcium (mg/femur) [3]: 8.1±0.50 mg/femur; Amount of phosphorus (mg/femur) [3]: 5.1±0.26 mg/femur; Stimulatory potency on ossification [2]: 1.11
CC(C)Oc1ccc2c(c1)[nH]c(=O)c1c3ccc(O)cc3oc21 [Compound 9, 9-Hydroxy-3-isopropoxy-5H-benzofuro[3,2-c]quinolin-6-one] | 2.89 | Stimulatory potency on ossification [2]: 1.08
CC(C)Oc1ccc2c(c1)[nH]c(=O)c1c3ccccc3oc21 [Compound 4, 3-Isopropoxy-5H-benzofuro[3,2-c]quinolin-6-one] | 1.16 | –
CCOC(=O)C(C)Oc1ccc2c(c1)[nH]c(=O)c1c3ccccc3oc21 (stereo not drawn) [Compound 6, 3-(1-Ethoxycarbonylethoxy)-5H-benzofuro[3,2-c]quinolin-6-one] | 1.10 | –
